# Experimental data reported in patent US11255806B2, “Interdigitated electrodes for in vitro analysis of cells” (UNIVERSITY OF CENTRAL FLORIDA RESEARCH FOUNDATION, INC., priority 2017, dated 2022).
# Where “and” joins values, the source holds several entries; their conditions need not be identical. Equal values may be shown once.
# System: iPSC cardiomyocytes (iCell Cardiomyocytes^2)
# Test: Model drug (norepinephrine) cardiotoxicity experiment: impedance / cell index on nIDEs with cultured iPSC cardiomyocytes
# Assay type: cell-based, Human
structure (smiles),measurement,setting,value
NC[C@H](O)c1ccc(O)c(O)c1 [norepinephrine],change of CI and % CI with norepinephrine concentration,"0 μM to 250 μM, N=6, FIG. 24",both decrease as the concentration of norepinephrine increases
same,percent cell index (% CI),"at 256 μm norepinephrine, mean of N=7, 86.91% at 0 μM, FIG. 24",48.88%
same,cell index (CI),"at 256 μm norepinephrine, mean of N=7, CI=2.34 at 0 μM, FIG. 23",1.13
same,cellular index (CI) after increased concentrations of norepinephrine,"summary statement, concentration not given, decrease from 2.34 / 2.3",1.13 and 1
